Laboratory results from PubChem BioAssay AID1996.
Converted amounts (≈) assume the structure as drawn.

Conditions: buffer; pH 7.4; 200.0 µM

SMILES | solubility kinetic [µg/mL]
C#CCn1ccc(O)c(Cc2c(F)cccc2Cl)c1=O | > 43.8
CN(C(=O)c1cccs1)C1(C)CCS(=O)(=O)C1 (stereo unspecified) | > 41
Cc1ccc(-c2cc(C(=O)N3CCOCC3)c3ccccc3n2)o1 | > 48.4
COc1cccc(/C=C(\C)C(=O)c2c(C)cc(C)[nH]c2=O)c1OC | > 49.1
CC(C)OC(=O)NCCOC(=O)Nc1ccccc1Cl | > 45.1
Cn1nccc1C(=O)OCC(=O)Nc1cccc(Cl)c1 | > 44.1
CC(C)COP(=O)(c1ccc(N(C)C)cc1)C(O)c1cccnc1 (stereo unspecified) | 49.6 (≈ 142 µM)
CC1CN(C(=O)COC(=O)c2cnc(Cl)c(Cl)c2)CC(C)O1 (stereo unspecified) | > 52.1
O=C(/C=C/c1ccccc1)Oc1ccccc1C(=S)N1CCOCC1 | 18.9 (≈ 53.5 µM)
O=S(=O)(NCc1ccccc1)c1ccc2ccccc2c1 | 1.1 (≈ 3.7 µM)
CCN(c1cccc(C)c1)S(=O)(=O)c1ccc(OC)c([N+](=O)[O-])c1 | < 0.4
COc1cc(C(=O)NCCSc2ccccc2)cc(OC)c1OC | 49.9 (≈ 144 µM)
Cc1cc(C=O)c(C)n1C(C)C | 23 (≈ 139 µM)
S=C(c1ccc2c(c1)OCO2)N1CCOCC1 | > 37.7
O=C(CNc1ccccc1Cl)c1ccc(Br)cc1 | < 0.7
O=C(Nc1cccc(Cl)c1)Nc1cccc(C(=O)O)c1 | > 43.6
COc1ccc(-c2csc(Nc3cccc(C)n3)n2)cc1C | 3.4 (≈ 10.9 µM)
N#Cc1cc(-c2ccccc2)nc(N2CCNCC2)n1 | > 39.8
Nc1ccc(OCc2ccco2)cc1 | 19.5 (≈ 103 µM)
COc1ccc2oc(=N)c(C(=O)Nc3ccccc3Cl)cc2c1 | 0.8 (≈ 2.43 µM)
O=C(O)C1C2CCC(O2)C1C(=O)Nc1cccc(Br)c1 (stereo unspecified) | 50.7 (≈ 149 µM)
CCOc1ccccc1-c1noc(CCC(=O)NC2CCCCC2)n1 | 46.2 (≈ 135 µM)
COc1cccc(N2C(=O)CC(N3CCc4ccccc4C3)C2=O)c1 (stereo unspecified) | 50.4 (≈ 150 µM)
O=C(NCCCn1ccnc1)c1ccc(Cl)c(Cl)c1 | > 44.7
FC(F)(F)c1cccc(N2CCN(C3CC4CCC3C4)CC2)c1 (stereo unspecified) | 1.4 (≈ 4.32 µM)

SMILES | solubility kinetic [µg/mL]
CCOC(=O)Cc1csc(NC(=O)Nc2ccc(C)cc2)n1 | 3.8 (≈ 11.9 µM)
Cc1nc2cc(NC(=O)NCCCO)ccc2o1 | > 37.4
CCCOC(=O)Cn1cnc2scc(-c3ccc(C)cc3)c2c1=O | 17.2 (≈ 50.2 µM)
Cc1cccc(NC(=O)Nc2ccccc2[N+](=O)[O-])n1 | 0.3 (≈ 1.1 µM)
O=C(CSc1ncnc2ccccc12)c1ccco1 | > 40.5
CCOCCN(C(=O)c1ccccc1Cl)c1ccccc1 | 41.1 (≈ 135 µM)
CCOC(=O)c1csc(-c2ccc3c(c2)CCO3)n1 | 32.3 (≈ 117 µM)
CCn1ccnc1CNC(=O)c1cc(COc2ccc(F)cc2F)on1 | 49.3 (≈ 136 µM)
CN(C)CCOC(C)(c1ccccc1)c1ccccn1.O=C(O)CCC(=O)O (stereo unspecified) | > 58.3
COc1ccc(OCC(O)CNS(=O)(=O)c2cccc(Cl)c2)cc1 (stereo unspecified) | 51.4 (≈ 138 µM)
Cc1c(CN2CCN(CC(C)(C)C)C(CCO)C2)[nH]c2ccccc12 (stereo unspecified) | 45.1 (≈ 131 µM)
O=C(/C=C/c1ccc(-c2ccc(F)cc2)o1)N1CCCC1 | 31.7 (≈ 111 µM)
COc1ccccc1NC1=C(Cl)C(=O)OC1OC(=O)c1ccco1 (stereo unspecified) | 47.3 (≈ 135 µM)
Cc1ccc(C(=O)COC(=O)CCNS(=O)(=O)c2ccccc2F)cc1 | > 56.9
O=c1[nH]oc2cc(Cl)ccc12 | > 25.4
CN(C)c1ccc(C2NC(=O)c3ccccc3N2)cc1 (stereo unspecified) | 8.8 (≈ 32.9 µM)
CCOC(=O)N1CCN(c2nc3ccccn3c(=O)c2C=O)CC1 | > 49.6
CCCC(=O)Oc1cccc(C2NC(=O)c3ccccc3O2)c1 (stereo unspecified) | 18.8 (≈ 60.4 µM)
COc1ccccc1/C=C/C(=O)OCC(=O)NC1CCS(=O)(=O)C1 (stereo unspecified) | > 53
Fc1ccc(OCCOCCOc2cccc3[nH]ccc23)cc1 | 16.3 (≈ 51.7 µM)
O=C(Nc1ccc(Cl)cc1)c1ccc2ncsc2c1 | 3.1 (≈ 10.7 µM)
CC(=O)Nc1ccc(NC(=O)C2CC(=O)N(C(C)C)C2)cc1 (stereo unspecified) | 43.4 (≈ 143 µM)
COc1ccc(NC(=O)c2sccc2C)cn1 | > 37.2
CCOc1ccc(C(=O)NCC(=O)OCC(=O)N2CCCC2)cc1 | > 50.2
COc1ccc2c(c1)[nH]c1c(=O)n(Cc3ccncc3)cnc12 | 5.1 (≈ 16.6 µM)

SMILES | solubility kinetic [µg/mL]
O=C(NC1CCCCNC1=O)c1ccco1 (stereo unspecified) | > 33.3
O=C(COC(=O)/C=C/c1ccccc1)NCc1cccs1 | 17.7 (≈ 58.7 µM)
CN(CC1COc2ccccc2O1)C(=O)Cn1cc(C(F)(F)F)ccc1=O (stereo unspecified) | > 57.4
COC(=O)c1ccc(Nc2ncnc3sccc23)cc1 | 1.8 (≈ 6.31 µM)
O=c1c2ccccc2nc(-c2ccccc2Cl)n1-c1ccc(O)cc1 | > 52.3
COc1ccc(Cl)cc1NC(=O)Nc1cc(C)on1 | 0.9 (≈ 3.19 µM)
CCOc1ccccc1C(=O)Nc1ccc(NC(=O)c2ccccc2)cc1 | 1.7 (≈ 4.72 µM)
COC(=O)CSc1nc2sc3c(c2c(=O)[nH]1)CCC3 | 15.7 (≈ 53 µM)
CCCN1CCC(NC(=O)Nc2cccc3ccccc23)CC1 | > 46.7
C=CCSc1nc2sc3c(c2c(=O)n1CC)CCc1ccccc1-3 | > 53.2
CN(C)/C(=N\S(=O)(=O)c1ccc(Br)cc1)c1ccccc1 | 50.2 (≈ 137 µM)
Cc1ccc(NC(=O)CN(C)C(=O)Nc2ccc(C)cc2)cc1 | 4.9 (≈ 15.7 µM)
Nc1ccc(Cl)c(S(=O)(=O)Nc2cccc(Cl)c2)c1 | 43.4 (≈ 137 µM)
Cc1cc(C)c2c(NC(=O)CCl)nn(C)c2n1 | > 37.9
COc1ccccc1C(=O)OCC(=O)Nc1ccc(Cl)cn1 | 5.1 (≈ 15.9 µM)
Cc1ccc(S(=O)(=O)NCC(C)NC(=O)CN2CCOCC2)cc1 (stereo unspecified) | > 53.3
CC(=NCCCn1ccnc1)c1c(O)n(-c2ccccc2)c(=O)[nH]c1=O | > 53
CCOc1ccc(NC(=O)N(C2CCCC2)C2CCN(C(C)=O)CC2)cc1 | > 56
CSc1nccn1C(=O)c1ccccc1[N+](=O)[O-] | > 39.5
Cc1cc(C(=O)CN2C(=O)NC(C)(c3cc(F)ccc3F)C2=O)c(C)n1C1CC1 (stereo unspecified) | 48.9 (≈ 122 µM)
OCc1nc2ccccc2n1CCOc1ccccc1 | > 40.2
Cc1ccc(NC(=O)Cc2ccc(Cl)cc2)nc1 | 28.5 (≈ 109 µM)
O=C(Nc1cc2c3c(c1)CC(=O)N3CCC2)C1CC1 | > 38.4
c1ccc2c(c1)OCCc1c-2[nH]c2ccccc12 | 3 (≈ 12.8 µM)
N#Cc1c(Nc2ccccc2)s[nH]c1=O | > 32.6

SMILES | solubility kinetic [µg/mL]
Cc1ccc(CNCCc2ccc(F)cc2)s1 | 26.7 (≈ 107 µM)
O=C(c1cccc([N+](=O)[O-])c1)N1CCN(Cc2ccccc2)CC1 | > 48.8
COCn1cnc(-c2ccccc2)c1-c1ccccc1 | 32.5 (≈ 123 µM)
OCCC1CN(Cc2cccc(O)c2)CCN1CCc1ccccc1 (stereo unspecified) | 50.8 (≈ 149 µM)
O=S(=O)(c1ccc(Br)cc1)N1CCCC1 | 41.5 (≈ 143 µM)
Cc1cc(=O)n(Cc2ccccc2)c(O)c1C#N | 32.2 (≈ 134 µM)
CC(OC(=O)CC1CC2CCC1C2)C(=O)Nc1ccc(C(N)=O)cc1 (stereo unspecified) | > 51.7
CCCn1cccc(C(=O)Nc2ccc(OC)cc2)c1=O | > 42.9
COc1ccc(NC(=O)N2CCCc3cc(C)ccc32)c(OC)c1 | 27.8 (≈ 85.2 µM)
CN1C(=O)N(c2nnc(C(C)(C)C)s2)C(=O)C1c1ccccc1 (stereo unspecified) | > 49.6
CCc1cccc(C)c1NC(=O)c1cccnc1 | 34.4 (≈ 143 µM)
CCOC(=O)CCCNC(=O)CCNC(=O)c1ccc(OCC(C)C)cc1 | > 56.8
NC(=O)c1ccc(NC(=O)c2cccc3c2OCCCO3)cc1 | 14.5 (≈ 46.4 µM)
CN(Cc1ccccc1)C(=S)NC(=O)c1ccccc1 | 7.5 (≈ 26.4 µM)
C#CCOc1ccc(Cl)cc1/C=C1/C(=O)ON=C1C | > 41.4
COc1cccc(-c2cc(C(=O)N3CCOCC3)no2)c1 | > 43.2
O=C(COc1cccnc1[N+](=O)[O-])Nc1ccc(Cl)cc1F | 4.6 (≈ 14.1 µM)
COc1cc(NC(=O)COC(=O)CCc2nc3ccccc3c(=O)[nH]2)cc(OC)c1 | 60.7 (≈ 148 µM)
CCN(C(=O)COC(=O)/C(C#N)=C/c1ccc(N(C)C)cc1)C1CCS(=O)(=O)C1 (stereo unspecified) | 4.8 (≈ 11.4 µM)
Cc1cc(C)cc(OC(C)C(=O)NCCCn2ccnc2)c1 (stereo unspecified) | 33.4 (≈ 111 µM)
O=C1/C(=C/c2ccccn2)SC(=S)N1c1cccc(O)c1 | 0.4 (≈ 1.27 µM)
CC(C)CN1CCN(Cc2c[nH]c3ccccc23)CC1CCO (stereo unspecified) | 33.3 (≈ 106 µM)
CN(C)C(=O)c1cc(C(=O)c2ccc(F)cc2C(F)(F)F)c[nH]1 | 12.6 (≈ 38.4 µM)
CCOc1ccc(NC(=O)NCc2ccccn2)cc1 | 35.6 (≈ 131 µM)
Cc1ccc(C(=O)Nc2cccc3[nH]c(C(F)(F)F)nc23)cc1 | 3.3 (≈ 10.3 µM)

SMILES | solubility kinetic [µg/mL]
COc1ccc(NC(=O)Nc2cccs2)cn1 | > 37.4
COc1cc(C(=O)NCCCc2ccccc2)cc(OC)c1OC | > 49.4
COCCCNC(=O)c1ccccc1C(F)(F)F | > 39.2
COCC(=O)N(Cc1cc2ccc(C)cc2[nH]c1=O)c1ccc(C)cc1C | 4.9 (≈ 13.4 µM)
COc1ccc(CCC(=O)NC2CCCCC2)cc1 | > 39.2
Cc1ccc2c(c1)C(=O)CCCCC(=O)N2 | > 32.6
Cc1cccc(C(C)C)c1NC(=O)CSc1cccc[n+]1[O-] | > 47.5
COc1ccc(CNC(=S)Nc2ccccc2F)cc1 | 34 (≈ 117 µM)
Cc1[nH]c2ccccc2c1C(=O)CSc1ccccn1 | 1.4 (≈ 4.96 µM)
Nc1ncc([N+](=O)[O-])c(N2CCCCCC2)n1 | > 35.6
Cc1cccc(C)c1OCC(=O)Nc1ccc2c(c1)OCCO2 | 23.5 (≈ 75 µM)
c1cc(CCCc2ccncc2)ccn1 | > 29.7
CN(CC(=O)Nc1cccc(F)c1)CC(=O)N(C)c1c(N)n(Cc2ccccc2)c(=O)[nH]c1=O | > 70.3
O=C(c1cc2ccccc2cc1O)N1CCN(c2ccccn2)CC1 | 32.9 (≈ 98.7 µM)
CC(=O)c1ccc(NC(=S)NC(=O)Cc2ccc(Cl)cc2)cc1 | 0.4 (≈ 1.15 µM)
CN1CCC(N(C)C(=O)c2cc(S(=O)(=O)N(C)c3ccccc3)ccc2Cl)CC1.Cl | > 70.9
CCc1c(O)nc(SCC(=O)N(CC)CC)[nH]c1=O | > 42.8
CCOc1ccc2[nH]c3c(NCCN(CC)CC)ncnc3c2c1 | 43.2 (≈ 132 µM)
O=C(Cn1c(NCCO)nc2ccccc21)Nc1cccc(S(=O)(=O)N2CCCC2)c1 | 63.1 (≈ 142 µM)
CC(=O)C1=C(O)CC(C)(C)CC1=NCc1nc2ccccc2[nH]1 | > 46.7
CCCCn1c(=O)c(C(=O)NC(C)c2ccccc2)c(O)c2ccccc21 (stereo unspecified) | < 0.4
